Where “and” joins values, the source holds several entries; their conditions need not be identical. Identical values can stand only once.
How the values were obtained:
[1] = test system: patients diagnosed with Alzheimer-type dementia; test: Hasegawa Dementia Scale and symptom observation in patients with Alzheimer-type dementia; type: in vivo, human; conditions: for Hasegawa Dementia Scale After 2 months: individual Alzheimer-type dementia patients, EPA-E alone 300 or 600 mg/day for 2 months, scale of 30
Description: (§1) Each patient was evaluated for the improvement of the dementia by Hasegawa Dementia Scale at the start of the test, 2 months after the start of the test (2 months from the start of administering ethyl icosapentate), and 6 months after the start of the test (4 months after the start of the combined administration of the ethyl icosapentate and the levothyroxine sodium).

[2] = test system: patients diagnosed with cerebrovascular dementia; test: Hasegawa Dementia Scale and symptom observation in patients with cerebrovascular dementia (Reference Example); type: in vivo, human; conditions: for Hasegawa Dementia Scale After 2 months: individual cerebrovascular dementia patients, EPA-E alone 300 or 600 mg/day for 2 months
Description: as §1

For `CC/C=C\C/C=C\C/C=C\C/C=C\C/C=C\CCCC(=O)OCC` [EPA-E, ethyl icosapentate], the “Score of the Hasegawa Dementia Scale (range) 2 months after the start of the test” value ([1]; 14 Alzheimer-type dementia patients, EPA-E alone 300-600 mg/day) was “(7-17)”, the “Score of the Hasegawa Dementia Scale (average ± standard deviation) 2 months after the start of the test” value ([1]; 14 Alzheimer-type dementia patients, EPA-E alone 300-600 mg/day, at the start 10.0 ± 3.5) was 11.4 ± 3.0 and the “Change in the scores of the Hasegawa Dementia Scale, in words” value ([1]; Alzheimer-type dementia patients, sole administration of ethyl icosapentate 300 to 600 mg/day for 2 months) was “no substantial change”. The “Hasegawa Dementia Scale After 2 months” value ([1]; EPA-E 300 mg/day) was 14 and 12 and 11 and 10 and 7 and 9, the “Hasegawa Dementia Scale After 2 months” value ([1]; EPA-E 600 mg/day) was 7 and 8 and 11 (2×) and 17 and 13 and 15 and 14 and the “Score of the Hasegawa Dementia Scale (range) 2 months after the start of the test” value ([2]; 10 cerebrovascular dementia patients, EPA-E alone 300-600 mg/day) was “(9-15)”. For the same compound, the “Score of the Hasegawa Dementia Scale (average ± standard deviation) 2 months after the start of the test” value ([2]; 10 cerebrovascular dementia patients, EPA-E alone 300-600 mg/day, at the start 10.4 ± 1.7) was 11.2 ± 1.9, the “Hasegawa Dementia Scale After 2 months” value ([2]; EPA-E 300 mg/day) was 13 and 10 (2×) and 12 and the “Hasegawa Dementia Scale After 2 months” value ([2]; EPA-E 600 mg/day) was 15 and 11 (2×) and 12 and 9 (2×).

— patent publication US8461141B2, “Preventive or therapeutic drug for Alzheimer-type dementia” (Mochida Pharmaceutical Co., Ltd., priority 2005, dated 2013)
